According to BindingDB's records for doi:10.1016/j.bmc.2016.11.012 (China Pharmaceutical University, 2017):

Test: Inhibition of rabbit thrombin-induced platelet aggregation in rabbit platelet-rich plasma preincubated with rabbit liver microsomes for 4 hrs followed by addition to platelet

SMILES | IC50
CC(C)(C)OC(=O)/N=C(\N)c1ccc(CC2NCCn3c2nc2cc(C4(C(=O)N5CCCC5)CCCC4)ccc23)cc1 (stereo unspecified) | 8.16 µM
Cc1nc(C)c(OC(=O)/N=C(\N)c2ccc(CC3NCCn4c3nc3cc(C5(C(=O)N6CCCC6)CCCC5)ccc34)cc2)nc1C (stereo unspecified) | 1.95 µM
CC(C)(C)OC(=O)/N=C(\N)c1ccc(CC2c3nc4cc(C5(C(=O)N6CCCC6)CCCC5)ccc4n3CCN2C(=O)OC(C)(C)C)cc1 (stereo unspecified) | > 1000 µM
CCOC(=O)/N=C(\N)c1ccc(CC2NCCn3c2nc2cc(C4(C(=O)N5CCCC5)CCCC4)ccc23)cc1 (stereo unspecified) | 88.2 µM
CC(C)COC(=O)/N=C(\N)c1ccc(CC2NCCn3c2nc2cc(C4(C(=O)N5CCCC5)CCCC4)ccc23)cc1 (stereo unspecified) | 164 µM
N/C(=N\C(=O)OCc1ccccc1)c1ccc(CC2c3nc4cc(C5(C(=O)N6CCCC6)CCCC5)ccc4n3CCN2C(=O)OCc2ccccc2)cc1 (stereo unspecified) | > 1000 µM
CCCCCCOC(=O)/N=C(\N)c1ccc(CC2NCCn3c2nc2cc(C4(C(=O)N5CCCC5)CCCC4)ccc23)cc1 (stereo unspecified) | 25.3 µM
N/C(=N\C(=O)OCc1ccccc1)c1ccc(CC2NCCn3c2nc2cc(C4(C(=O)N5CCCC5)CCCC4)ccc23)cc1 (stereo unspecified) | 91.2 µM
CC(C)COC(=O)/N=C(\N)c1ccc(CC2c3nc4cc(C5(C(=O)N6CCCC6)CCCC5)ccc4n3CCN2C(=O)OCC(C)C)cc1 (stereo unspecified) | > 1000 µM
CCCCCCOC(=O)/N=C(\N)c1ccc(CC2c3nc4cc(C5(C(=O)N6CCCC6)CCCC5)ccc4n3CCN2C(=O)OCCCCCC)cc1 (stereo unspecified) | 91.5 µM
CCCCCCOC(=O)N=C(N)c1ccc(NCc2nc3cc(C(=O)N(CCC(=O)OCC)c4ccccn4)ccc3n2C)cc1 [BIBR-1048] | 0.554 µM
